As usually defined, the IC50 is the concentration needed to halve the response being measured.

This experiment concerns human platelets. Kind of experiment: suppressive activity on ADP aggregation of human platelets. Type of experiment: cell-based. Particulars: platelet rich plasma, ADP 1-5 μM, compound added 2 minutes before ADP, read-out: Suppression of platelet aggregation (IC50). The protocol: Determination of suppressive activity on ADP aggregation of human platelets
Platelet rich plasma was prepared from the blood taken from healthy humans by centrifugation in the presence of 0.38% sodium citrate, and used for the determination.
Two minutes after the test compounds shown in Table 1 were added to the above-mentioned platelet rich plasma, ADP (adenosine-5'-diphosphate) (1-5 μM) having a concentration at which primary aggregation alone is observed was added, and the suppression of ADP aggregation by the compounds was evaluated. The percent suppression was determined by varying the concentration of the compounds and the concentration of the compound at which the aggregation was suppressed by 50% (IC50) was calculated, which was taken as the activity of the compound.
For `N=C(NCc1ccccc1)c1ccc2oc(C(=O)Nc3ccc(OCC(=O)O)cc3)cc2c1` [Compound 5, 4-[(5-Benzylamidino-2-benzofuranyl)carbonylamino]phenoxy-acetic acid], the IC50 is 100 nM.

In the case of `N=C(N)c1ccc2oc(C(=O)Nc3ccc(OCC(=O)O)cc3)cc2c1` [Compound 10, 4-[(5-Amidino-2-benzofuranyl)carbonylamino]phenoxyacetic acid], the IC50 was determined as 30 nM.

Take `N=C(N)c1ccc2cc(C(=O)Nc3ccc(OCC(=O)O)cc3)oc2c1` [Compound 12, 4-[(6-Amidino-2-benzofuranyl)carbonylamino]phenoxyacetic acid]: the IC50 was determined as 230 nM.

`Cc1c(C(=O)Nc2ccc(OCC(=O)O)cc2)oc2ccc(C(=N)N)cc12` [Compound 16, 4-[(5-Amidino-3-methyl-2-benzofuranyl)carbonylamino]phenoxyacetic acid]: the IC50 amounted to 40 nM.

For the molecule `CN(C(=O)c1cc2cc(C(=N)N)ccc2o1)c1ccc(OCC(=O)O)cc1` [Compound 21, 4-[(5-Amidino-2-benzofuranyl)carbonyl-N-methylamino]phenoxyacetic acid], the IC50 worked out at 100 nM.

Regarding `N=C(N)c1ccc2oc(C(=O)Nc3ccc(OCC(=O)O)c(OCC(=O)O)c3)cc2c1` [Compound 29, [[4-[(5-Amidino-2-benzofuranyl)carbonylamino]-o-phenylene]dioxy]diacetic acid], the IC50 came out at 30 nM.

`COC(=O)CCc1ccc(NC(=O)c2cc3cc(C(=N)N)ccc3o2)cc1` [Compound 35, Methyl 3-[4-[(5-amidino-2-benzofuranyl)carbonylamino]phenyl]propionate]: the concentration for half-maximal inhibition (IC50) was determined as 500 nM.

Take `N=C(N)c1ccc2oc(C(=O)Nc3ccc(CCC(=O)O)cc3)cc2c1` [Compound 37, 3-[4-[(5-Amidino-2-benzofuranyl)carbonylamino]phenyl]propionate]: the 50% inhibitory concentration (IC50) is 40 nM.

`N=C(N)c1ccc2oc(C(=O)Nc3ccc(C[C@H](N)C(=O)O)cc3)cc2c1` [Compound 46, (S)-3-[4 [(5-Amidino-2-benzofuranyl)carbonylamino]phenyl]-2-aminopropionic acid]: the 50% inhibitory concentration (IC50) was found to be 60 nM.

As for `CCCCS(=O)(=O)NC(Cc1ccc(NC(=O)c2cc3cc(C(=N)N)ccc3o2)cc1)C(=O)O` (centres unmarked) [Compound 48, 3-[4-[(5-Amidino-2-benzofuranyl)carbonylamino]phenyl]-2-(n-butylsulfonylamino)propionic acid], the concentration for half-maximal inhibition (IC50) stood at 10 nM.

For `N=C(N)c1ccc2oc(C(=O)Nc3ccc(C[C@H](NS(=O)(=O)C(F)(F)F)C(=O)O)cc3)cc2c1` [Compound 55, (S)-3-[4-[(5-Amidino-2-benzofuranyl)carbonylamino]phenyl]-2-(trifluoromethylsulfonylamino)propionic acid], the half-maximal inhibitory concentration (IC50) stood at 70 nM.

On to `N=C(N)c1ccc2oc(C(=O)Nc3ccc(C[C@H](NC(=O)COC4CCNCC4)C(=O)O)cc3)cc2c1` [Compound 56, (S)-3-[4-[(5-Amidino-2-benzofuranyl)carbonylamino]phenyl]2-[(4-piperidinyloxy)acetylamino]propionic acid], for which the IC50 was 30 nM.

As for `COc1ccc(CCC(=O)N[C@@H](Cc2ccc(NC(=O)c3cc4cc(C(=N)N)ccc4o3)cc2)C(=O)O)cc1` [Compound 61, (S)-3-[4-[(5-Amidino-2-benzofuranyl)carbonylamino]phenyl]-2-[3-(4-methoxyphenyl)propionylamino]propionic acid], the IC50 came out at 30 nM.

On to `N=C(N)c1ccc2oc(C(=O)Nc3ccc(NCC(=O)O)cc3)cc2c1` [Compound 70, [4-[(5-Amidino-2-benzofuranyl)carbonylamino]anilino]acetic acid], for which the half-maximal inhibitory concentration (IC50) was found to be 150 nM.

Consider `CCCCC(=O)N(CC(=O)O)c1ccc(NC(=O)c2cc3cc(C(=N)N)ccc3o2)cc1` [Compound 74, [4-[(5-Amidino-2-benzofuranyl)carbonylamino]-N-(n-valeryl)anilino]acetic acid], for which the IC50 stood at 230 nM.

On to `N=C(N)c1ccc2cc(C(=O)Nc3ccc(OCC(=O)O)cc3)[nH]c2c1` [Compound 95, 4-[(6-Amidino-2-indolyl)carbonylamino]phenoxyacetic acid], for which the IC50 came to 60 nM.

For `Cn1c(C(=O)Nc2ccc(OCC(=O)O)cc2)cc2ccc(C(=N)N)cc21` [Compound 118, 4-[(6-Amidino-1-methyl-2-indolyl)carbonylamino]phenoxyacetic acid], the half-maximal inhibitory concentration (IC50) turned out to be 200 nM.

As to `N=C(N)c1ccc2sc(C(=O)Nc3ccc(OCC(=O)O)cc3)cc2c1` [Compound 134, 4-[(5-Amidinobenzo[b]thien-2-yl)carbonylamino]phenoxyacetic acid], the IC50 amounted to 700 nM.

With `N=C(N)c1ccc2cc(C(=O)Nc3ccc(OCC(=O)O)cc3)sc2c1` [Compound 135, 4-[(6-Amidinobenzo[b]thien-2-yl)carbonylamino]phenoxyacetic acid], the concentration for half-maximal inhibition (IC50) is 20 nM.

In the case of `N=C(N)c1ccc2oc(C(=O)OC3CCC(OCC(=O)O)CC3)cc2c1` (centres unmarked) [Compound 152, [4-[(5-Amidino-2-benzofuranyl)carbonyloxy]cyclohexyloxy]acetic acid], the IC50 was 80 nM.

Consider `CCOC(=O)CC[C@H]1CC[C@H](NC(=O)c2cc3cc(C(=N)N)ccc3o2)CC1` [Compound 159], for which the IC50 was 70 nM.

With `N=C(N)c1ccc2oc(C(=O)N[C@H]3CC[C@H](CCC(=O)OCCO)CC3)cc2c1` [Compound 163, 2-Hydroxyethyl trans-3-[4-[(5-amidino-2-benzofuranyl)carbonylamino]cyclohexyl]propionate], the IC50 is 450 nM.

Take `N=C(N)c1ccc2oc(C(=O)N[C@H]3CC[C@H](OCC(=O)OCCO)CC3)cc2c1` [Compound 164, 2-Hydroxyethyl trans-[4-[(5-amidino-2-benzofuranyl)carbonylamino]cyclohexyloxy]acetate]: the IC50 worked out at 180 nM.

Take `N=C(N)c1ccc2oc(C(=O)NC3CCC(CCC(=O)O)CC3)cc2c1` (centres unmarked) [Compound 165, 3-[4-[(5-Amidino-2-benzofuranyl)carbonylamino]cyclohexyl]propionic acid]: the 50% inhibitory concentration (IC50) turned out to be 10 nM.

Consider `N=C(N)c1ccc2oc(C(=O)N[C@H]3CC[C@H](CCC(=O)O)CC3)cc2c1` [Compound 167, trans-3-[4-[(5-amidino-2-benzofuranyl)carbonylamino]cyclohexyl]propionic acid], for which the IC50 came out at 6 nM.

As for `N=C(N)c1ccc2oc(C(=O)N[C@H]3CC[C@H](OCC(=O)O)CC3)cc2c1` [Compound 179, trans-[4-[(5-Amidino-2-benzofuranyl)carbonylamino]cyclohexyloxy]acetic acid], the half-inhibitory concentration (IC50) amounted to 10 nM.

`Cc1c(C(=O)N[C@H]2CC[C@H](OCC(=O)O)CC2)oc2ccc(C(=N)N)cc12` [Compound 182, trans-[4-[(5-Amidino-3-methyl-2-benzofuranyl)carbonylamino]cyclohexyloxy]acetic acid]: the IC50 amounted to 30 nM.

`COc1c(C(=O)N[C@H]2CC[C@H](OCC(=O)O)CC2)oc2ccc(C(=N)N)cc12` [Compound 184, trans-[4-[(5-Amidino-3-methoxy-2-benzofuranyl)carbonyl-amino]cyclohexyloxy]acetic acid]: the half-inhibitory concentration (IC50) turned out to be 150 nM.

With `CCOC(=O)CCN1CCC(NC(=O)c2cc3cc(C(=N)N)ccc3o2)CC1` [Compound 191, Ethyl 3-[4-[(5-amidino-2-benzofuranyl)carbonylamino]-piperidino]propionate], the IC50 was 160 nM.

Regarding `N=C(N)c1ccc2oc(C(=O)NC3CCN(CCC(=O)O)CC3)cc2c1` [Compound 192, 3-[4-[(5-amidino-2-benzofuranyl)carbonylamino]piperidino]propionic acid], the IC50 worked out at 20 nM.

Consider `CCOC(=O)CCN1CCC(OC(=O)c2cc3cc(C(=N)N)ccc3o2)CC1` [Compound 193, Ethyl 3-[4-[(5-amidino-2-benzofuranyl)carbonyloxy]piperidino]propionate], for which the IC50 was 320 nM.

Turning to `N=C(N)c1ccc2oc(C(=O)N[C@H]3CC[C@H](NCC(=O)O)CC3)cc2c1` [Compound 195, trans-[4-[(5-Amidino-2-benzofuranyl)carbonylamino]cyclohexylamino]acetic acid], the IC50 worked out at 20 nM.

With `CCOC(=O)CN(CC(=O)OCC)[C@H]1CC[C@H](NC(=O)c2cc3cc(C(=N)N)ccc3o2)CC1` [Compound 202, Diethyl trans-[4-[(5-amidino-2-benzofuranyl)carbonylamino]cyclohexylamino]diacetate], the IC50 was 230 nM.

For the molecule `CC(C)(C)OC(=O)CN(CC(=O)OC(C)(C)C)[C@H]1CC[C@H](NC(=O)c2cc3cc(C(=N)N)ccc3o2)CC1` [Compound 203, di-t-butyl trans-[4-[(5-amidino-2-benzofuranyl)-carbonylamino]cyclohexylamino]diacetate], the IC50 worked out at 1750 nM.

As to `N=C(N)c1ccc2oc(C(=O)N[C@H]3CC[C@H](N(CC(=O)O)CC(=O)O)CC3)cc2c1` [Compound 204, trans-[4-[(5-Amidino-2-benzofuranyl)carbonylamino]cyclohexylamino]diacetic acid], the IC50 is 9 nM.

Turning to `CCOC(=O)CO[C@H]1CC[C@H](NC(=O)c2cc3ccc(C(=N)N)cc3[nH]2)CC1` [Compound 209, Ethyl trans-[4-[(6-Amidino-2-indolyl)carbonylamino]cyclohexyloxy]acetate], the half-inhibitory concentration (IC50) worked out at 100 nM.

For the molecule `N=C(N)c1ccc2cc(C(=O)N[C@H]3CC[C@H](OCC(=O)O)CC3)[nH]c2c1` [Compound 212, trans-[4-[(6-Amidino-2-indolyl)carbonylamino]cyclohexyloxy]acetic acid], the IC50 was 30 nM.

As for `N=C(N)c1ccc2cc(C(=O)N[C@H]3CC[C@H](OCC(=O)O)CC3)sc2c1` [Compound 232, trans-[4-[(6-Amidinobenzo[b]thien-2-yl)carbonylamino]cyclohexyloxy]acetic acid], the 50% inhibitory concentration (IC50) is 20 nM.

Values taken from patent publication US5635527A, “Carboxylic acid compound having condensed ring, salt thereof and pharmaceutical use thereof” (The Green Cross Corporation, priority 1994, dated 1997).
